According to patent US20050137194A1, “Combination of selected opioids with other active compounds for treatment of urinary incontinence” (Gruenenthal GmbH, priority 2002, published 2005):
Read-outs that look alike come from different tables or passages of the source. Marks after values point to notes of the source that are not given here.

What was measured:
[1] = tested on: naive female rats; experiment: Cystometry test system on narcotized naive rats (suppression of spontaneous bladder contractions); type: in vivo, rat; conditions: i.v. cumulative; for minimal effective dose: Rattus norvegicus, iv, 10 min, read-out: Lowest dose at which for the first time contractions were absent over a period of 10 minutes
Description: The cystometric investigation on naive female rats was carried out in accordance with the method of Kimura et al. (Kimura et al., 1996, Int. J. Urol. 3: 218-227). The abdomen of narcotized, ventilated rats is opened up and the ureter is ligated. The urine is drained from the kidneys. A catheter is inserted into the bladder and fixed. […] After stable starting values have been reached, the test substance is administered i.v. in a cumulative manner. Influencing of the bladder function manifests itself via suppression of the spontaneous contractions. In this context, the absence of contractions over a period of 10 min is a parameter for the suppression.
With all the substances listed here, a suppression of the spontaneous contractions was measurable in the rats, table 3 showing the mean of the lowest dose of at least 2 experiments at which for the first time contractions were absent over a period of 10 minutes.
With all the substances listed here, a suppression of the spontaneous contractions was measurable in the rats, table 4 showing the mean of the lowest dose of at least 2 experiments at which for the first time contractions were absent over a period of 10 minutes.
With all the substances listed here, a suppression of the spontaneous contractions was measurable in the rats, table 5 showing the mean of the lowest dose of at least 2 experiments at which for the first time contractions were absent over a period of 10 minutes. […]

[2] = tested on: naive, female Sprague-Dawley rats; experiment: Cystometry test system on conscious naive rats; conditions: for action on bladder regulation (in words): conscious naive rats, i.v.
Description: Three days after implantation of bladder and venous catheters, the animals were investigated in the freely mobile, conscious state. The bladder catheter was connected to a pressure transducer and an injection pump. The animals were placed in metabolism cages which allowed measurement of the volume of urine. Physiological saline solution was infused into the emptied bladder (10 ml/h) and the bladder pressure and micturition volume were recorded continuously. After a stabilization phase, a 20 minute phase, which was characterized by normal, reproducible micturition cycles, was recorded. The following parameters, inter alia, were determined: • threshold pressure (TP, bladder pressure immediately before micturition), • bladder capacity (BC, residual volume after preceding micturition plus volume of the infused solution during the filling phase), • intercontraction interval (ICI, the interval of time between micturitions).

[3] = tested on: rat; conditions: rat model of rhythmic bladder contractions; Nippon-Shinyaku, WO 98/46216; cited from earlier work
[4] = tested on: female Sprague-Dawley rats; experiment: Cystometry test system on conscious damaged rats (oxyhaemoglobin-induced bladder hyperactivity, urgency incontinence model)
Description: This model simulates the urgency incontinence in an animal model; the oxyhaemoglobin (OxyHb) employed induces a bladder hyperactivity.
Three days after implantation of bladder and venous catheters, the animals were investigated in the freely mobile, conscious state. The bladder catheter was connected to a pressure transducer and an injection pump. The animals were placed in metabolism cages which allowed measurement of the volume of urine. Physiological saline solution was infused into the emptied bladder (10 ml/h) and the bladder pressure and micturition volume were recorded continuously. After a stabilization phase, a 20 minute phase, which was characterized by normal, reproducible micturition cycles, was recorded. The following parameters, inter alia, were determined: • threshold pressure (TP, bladder pressure immediately before micturition), • bladder capacity (BC, residual volume after preceding micturition plus volume of the infused solution during the filling phase), • intercontraction interval (ICI, the interval of time between micturitions) • micturition pressure (MP, maximum bladder pressure during a micturition).
After three reproducible micturition cycles had been recorded as the pre-value, 2.5×10^−4 M oxyhemoglobin in the vehicle=0.9% NaCl were infused into the bladder. The action on the cystometric parameters was recorded for about 20 minutes. At the action maximum the mean of 3 micturition cycles was determined and shown as a percentage change compared with the pre-value (table 8).

[5] = 1.0 mg/kg iv, action maximum, mean of 3 micturition cycles
[6] = mean of at least 3 independent experiments
[7] = after OxyHb 2.5 × 10^−4 M, n = 5, average ± standard deviation
[8] = pre-value before OxyHb 2.5 × 10^−4 M, n = 5, average ± standard deviation

CC[C@](O)(c1ccc(Cl)c(Cl)c1)[C@H](C)CN(C)C.Cl (racemic) [Compound 3, (2RS,3RS)-3-(3,4-dichlorophenyl)-1-dimethylamino-2-methyl-pentan-3-ol, hydrochloride]
Lowest dose at which for the first time contractions were absent over a period of 10 minutes ([1]; mean of at least 2 experiments): 23.3 mg/kg

CC[C@](O)(c1cccc(C(F)F)c1)[C@H](C)CN(C)C.Cl (racemic) [Compound 4, (2RS,3RS)-3-(3-difluoromethyl-phenyl)-1-dimethylamino-2-methyl-pentan-3-ol, hydrochloride]
minimal effective dose ([1]; mean of at least 2 experiments): 1.7 mg/kg

CC[C@](O)(c1cccc(SC)c1)[C@H](C)CN(C)C.Cl (racemic) [Compound 5, (2RS,3RS)-1-dimethylamino-2-methyl-3-(3-methylsulfanyl-phenyl)-pentan-3-ol, hydrochloride]
minimal effective dose ([1]; mean of at least 2 experiments): 2.3 mg/kg

COc1cccc(C(O)(CCN(C)C)C(C)(C)C)c1.Cl (racemic) [Compound 6, (3RS)-1-dimethylamino-3-(3-methoxy-phenyl)-4,4-dimethyl-pentan-3-ol, hydrochloride]
Lowest dose at which for the first time contractions were absent over a period of 10 minutes ([1]; mean of at least 2 experiments): 16.7 mg/kg

CCC(O)(c1cccc(O)c1)C(C)CN(C)C.Cl (racemic) [Compound 7, (2RS,3RS)-3-(3-dimethylamino-1-ethyl-1-hydroxy-2-methyl-propyl)-phenol, hydrochloride]
BC bladder capacity, change relative to the pre-value ([2]; 0.3 mg/kg iv): +32% * | ICI intercontraction interval, change relative to the pre-value ([2]; 0.3 mg/kg iv): +28% * | TP threshold pressure, change relative to the pre-value ([2]; 0.3 mg/kg iv): +95% **

C[C@H](CN(C)C)[C@@](C)(O)c1cccc(O)c1.Cl (racemic) [Compound 8, (1RS,2RS)-3-(3-dimethylamino-1-hydroxy-1,2-dimethyl-propyl)-phenol, hydrochloride]
BC bladder capacity, change relative to the pre-value [2, 5]: +7% | ICI intercontraction interval, change relative to the pre-value [2, 5]: +14.4% | TP threshold pressure, change relative to the pre-value [2, 5]: +60% **

CCC(O)(c1cccc(OC)c1)C1(CN(C)C)CCCCC1.Cl (racemic) [Compound 13, (1RS)-1-(1-dimethylaminomethyl-cyclohexyl)-1-(3-methoxy-phenyl)-propan-1-ol, hydrochloride]
minimal effective dose ([1]; mean of at least 2 experiments): 20 mg/kg

CC[C@](O)(c1ccc(Cl)cc1)[C@H](C)CN(C)C.Cl (racemic) [Compound 14, (2RS,3RS)-3-(4-chlorophenyl)-1-dimethylamino-2-methyl-pentan-3-ol, hydrochloride]
minimal effective dose ([1]; mean of at least 2 experiments): 20 mg/kg

COc1cccc(C2(O)CCCCC2CN(C)C)c1 (racemic) [Compound 23, rac-tramadol, reference compound]
minimal effective dose ([1]; mean of at least 2 experiments): 5.3 mg/kg | effect on bladder function (in words) [3]: positive effect on bladder function

COc1cccc([C@@]2(O)C[C@H](O)CC[C@@H]2CN(C)C)c1.Cl (racemic) [Compound 24, (1RS,3RS,6RS)-6-dimethylaminomethyl-1-(3-methoxy-phenyl)-cyclohexane-1,3-diol, hydrochloride]
BC bladder capacity, change relative to the pre-value [2, 5]: −8.0% | ICI intercontraction interval, change relative to the pre-value [2, 5]: −15% ** | TP threshold pressure, change relative to the pre-value [2, 5]: +44.0% *** | BC bladder capacity, change relative to the pre-value ([2]; 3.0 mg/kg iv): −16.0% * | ICI interconnection interval, change relative to the pre-value ([2]; 3.0 mg/kg iv): −16% * | TP threshold pressure, change relative to the pre-value ([2]; 3.0 mg/kg iv): +94.0% ** | BC bladder capacity, change relative to the pre-value ([2]; 5.0 mg/kg iv): −26.0% * | ICI interconnection interval, change relative to the pre-value ([2]; 5.0 mg/kg iv): −21.2% | TP threshold pressure, change relative to the pre-value ([2]; 5.0 mg/kg iv): +69.0% *

CN(C)C[C@H]1CC[C@@H](O)C[C@]1(O)c1cccc(O)c1.Cl (racemic) [Compound 26, (1RS,3RS,6RS)-6-dimethylaminomethyl-1-(3-hydroxy-phenyl)-cyclohexane-1,3-diol, hydrochloride]
BC bladder capacity, change relative to the pre-value ([2]; 3.0 mg/kg iv): +29.0% * | ICI interconnection interval, change relative to the pre-value ([2]; 3.0 mg/kg iv): +27.0% * | TP threshold pressure, change relative to the pre-value ([2]; 3.0 mg/kg iv): +86.0% ***

COc1cccc([C@@]2(O)C[C@@H](O)CC[C@@H]2CN(C)C)c1.Cl (racemic) [Compound 27, (1RS,3SR,6RS)-6-dimethylaminomethyl-1-(3-methoxy-phenyl)-cyclohexane-1,3-diol, hydrochloride]
minimal effective dose ([1]; mean of at least 2 experiments): 115 mg/kg

CN(C)C[C@H]1CC[C@@H](C(F)(F)F)C[C@]1(O)c1cccc(O)c1.Cl (racemic) [Compound 29, (1RS,2RS,5RS)-3-(2-dimethylaminomethyl-1-hydroxy-5-trifluoromethyl-cyclohexyl)-phenol, hydrochloride]
minimal effective dose ([1]; mean of at least 2 experiments): 23.3 mg/kg

CC[C@](O)(c1cccc(OC)c1)[C@H](C)CN(C)C.Cl [Compound 2, (+)-(2R,3R)-1-dimethylamino-3-(3-methoxy-phenyl)-2-methyl-pentan-3-ol, hydrochloride]
action on bladder regulation (in words) [2]: effectively active

C[C@H](CN(C)C)[C@@](C)(O)c1cccc(O)c1.Cl [Compound 9, (+)-(1R,2R)-3-(3-dimethylamino-1-hydroxy-1,2-dimethyl-propyl)-phenol, hydrochloride]
BC bladder capacity, change relative to the pre-value ([2]; 0.5 mg/kg iv): +50% ** | ICI intercontraction interval, change relative to the pre-value ([2]; 0.5 mg/kg iv): +21% * | TP threshold pressure, change relative to the pre-value ([2]; 0.5 mg/kg iv): +56% **

C[C@H](CN(C)C)[C@@](C)(O)c1cccc(O)c1.Cl [Compound 10, (+)-(1R,2R)-3-(3-dimethylamino-1-hydroxy-1,2-dimethyl-propyl)-phenol, hydrochloride]
minimal effective dose ([1]; mean of at least 2 experiments): 0.2 mg/kg

CC[C@](OC(C)=O)(c1cccc(OC)c1)[C@H](C)CN(C)C.Cl [Compound 12, (+)-(1R,2R)-acetic acid 3-dimethylamino-1-ethyl-1-(3-methoxy-phenyl)-2-methyl-propyl ester, hydrochloride]
minimal effective dose ([1]; mean of at least 2 experiments): 30 mg/kg

CN(C)C[C@H]1CCCC[C@]1(F)c1cccc(O)c1.Cl [Compound 18, (+)-(1R,2R)-3-(2-dimethylaminomethyl-1-fluoro-cyclohexyl)-phenol, hydrochloride]
minimal effective dose ([1]; mean of at least 2 experiments): 0.2 mg/kg

CN(C)C[C@H]1CCCC[C@@H]1c1cccc(O)c1.Cl [Compound 19, (+)-(1S,2S)-3-(2-dimethylaminomethyl-cyclohexyl)-phenol, hydrochloride]
minimal effective dose ([1]; mean of at least 2 experiments): 0.1 mg/kg

CN(C)C[C@@H]1CCCC[C@H]1c1cccc(O)c1.Cl [Compound 20, (−)-(1R,2R)-3-(2-dimethylaminomethyl-cyclohexyl)-phenol, hydrochloride]
minimal effective dose ([1]; mean of at least 2 experiments): 0.5 mg/kg

CC[C@@](O)(c1cccc(OC)c1)[C@@H](C)CN(C)C.Cl [Compound 21, (−)-(2S,3S)-1-dimethylamino-3-(3-methoxy-phenyl)-2-methyl-pentan-3-ol, hydrochloride]
action on bladder regulation (in words) [2]: does not contribute to the action

COc1cccc([C@@]2(O)C[C@H](O)CC[C@@H]2CN(C)C)c1.Cl [Compound 25, (+)-(1R,3R,6R)-6-dimethylaminomethyl-1-(3-methoxy-phenyl)-cyclohexane-1,3-diol, hydrochloride]
BC bladder capacity, change relative to the pre-value ([2]; 1.5 mg/kg iv): −14.0% * | ICI interconnection interval, change relative to the pre-value ([2]; 1.5 mg/kg iv): −9.0 * % | TP threshold pressure, change relative to the pre-value ([2]; 1.5 mg/kg iv): +62.0% *

C[C@H]1CC[C@H](CN(C)C)[C@@](O)(c2cccc(O)c2)C1.Cl [Compound 28, (+)-(1R,2R,5S)-3-(2-dimethylaminomethyl-1-hydroxy-5-methyl-cyclohexyl)-phenol, hydrochloride]
minimal effective dose ([1]; mean of at least 2 experiments): 16.7 mg/kg

CCC1(c2cccc(O)c2)CCCCN(C)C1 (centres unmarked) [meptazinol, reference compound]
minimal effective dose [1, 6]: 1 mg/kg

CCOC(=O)C1(c2ccccc2)CCC=CC1N(C)C (centres unmarked) [tilidine, reference compound]
minimal effective dose [1, 6]: 0.5 mg/kg

oxyhaemoglobin [OxyHb]
BC bladder capacity, change (diff) in comparison with the pre-value ([4]; OxyHb 2.5 × 10^−4 M alone): diff: −29.3% | ICI intercontraction interval, change (diff) in comparison with the pre-value ([4]; OxyHb 2.5 × 10^−4 M alone): diff: −32.9% | MP micturition pressure, change (diff.) in comparison with the pre-value ([4]; OxyHb 2.5 × 10^−4 M alone): diff.: +64.4% | TP threshold pressure, change (diff.) in comparison with the pre-value ([4]; OxyHb 2.5 × 10^−4 M alone): diff.: +12.8% | BC bladder capacity, after (a) [4, 7]: a: 0.65 ± 0.06 ml | ICI intercontraction interval, after (a) [4, 7]: a: 3.33 ± 0.18 min | MP micturition pressure, after (a) [4, 7]: a: 97 ± 5 cm H2O | TP threshold pressure, after (a) [4, 7]: a: 9.84 ± 1.56 cm H2O | BC bladder capacity, before (b) [4, 8]: b: 0.92 ± 0.10 ml | ICI intercontraction interval, before (b) [4, 8]: b: 4.96 ± 0.33 min | MP micturition pressure, before (b) [4, 8]: b: 59 ± 8 cm H2O | TP threshold pressure, before (b) [4, 8]: b: 8.72 ± 1.31 cm H2O
